Reference: article PMC9037311 (RSC Advances, 2021)

Assay: Pharmacokinetic study after oral administration to rats
Type: in vivo, Sprague-Dawley male rats

Question: Which results are given for `O=C([O-])Cc1ccccc1Nc1c(Cl)cccc1Cl.[K+]` [DCFP, Diclofenac potassium]?
Answer: AUC(0–t) (25 mg kg^−1): 53.99 ± 3.18 mg/L/h; AUC(0–∞) (25 mg kg^−1): 59.22 ± 5.23 mg/L/h; Cmax (25 mg kg^−1): 15520 ± 1050 ng/mL; blood drug concentration (at 10 h): nearly undetectable; blood drug concentration (within 1 h): not detectable
